# Measurements: a melting point compilation (Tetko et al.; mined from patent text by program, amines drawn as free bases though some values may be those of a salt)
row,melting point [°C],Structure (SMILES)
1,64 to 66,CCN(C(C)C)C(C)CC1=C(c2ccc(OC)cc2)CCCNC1=O (stereo unspecified)
2,168,Cc1ccc(C2=NC[C@@H](O)[C@H](c3ccccc3)O2)cc1 (racemic)
3,164 to 166,COC(=O)CC(=O)/C=C/c1c(-c2ccc(F)cc2OC)n(C(C)C)c(=O)c2ccccc12
4,50 to 52,O=C(O)c1ccc(NCCCCCCCCCCCc2ccccc2)cc1
5,140,COc1cccc(-c2ccc3c(c2)CC[C@H]2N(C)C(=O)CC[C@]32C)c1
6,160 to 162,CC(C)[C@H](NC(=O)OCc1ccccc1)C(=O)N[C@H](C=O)Cc1ccc(OCc2ccccc2)cc1
7,120,Cc1nc2c(O)c(C(=O)[C@H](O)[C@@H](O)c3ccccc3)ccc2n1C1CC1
8,111 to 116,CC(Br)c1ccc2onc(-c3ccc(Cl)cc3)c2c1 (stereo unspecified)
9,150,N#Cc1ccc(CN(c2ccc(O)cc2)n2ccnc2)cc1
10,322 to 325,N=C(NO)c1ccc(-c2cccc(-c3nc4cc(C(=N)NO)ccc4[nH]3)c2O)cc1
11,126 to 129,COc1cccc([C@H]2O[C@H](CC(=O)NCCc3occc3C(=O)O)C(=O)N(CC(C)(C)CO)c3ccc(Cl)cc32)c1OC
12,149 to 151,CCCCc1nc2c(N)nc3ccccc3c2n1CCCCCC(=O)c1ccccc1
13,199 to 200,O=C(NCc1ccccc1Cl)Nc1ccc([N+](=O)[O-])cc1O
14,144 to 146,Cc1cc(=O)n2cccc(OCc3ccccc3Br)c2n1
15,150 to 153,CCOCc1nc2c(N)nc3ccc(OCc4ccccc4)cc3c2n1CCCCNC(=O)N1CCOCC1
16,216 to 217,O=C(NN=Cc1ccccc1)c1ccc(C(F)(F)F)cc1
17,154 to 162,COc1cccc2c(Nc3ccc(C(=O)NC4CCN(Cc5ccccc5)CC4)cc3)c(C(N)=O)cnc12
18,167,O=C(CSc1nc2ccccc2[nH]1)c1ccccc1
19,150 to 152,O=C(Nc1ccc2c(c1)CCC2)C(=O)N1CCC(Cc2ccc(F)cc2)CC1

row,melting point [°C],Structure (SMILES)
1,178 to 180,Cn1c(=O)c(C(=O)O)c(-c2ccccc2Cl)c2cccnc21
2,89 to 90,CCc1noc(-c2cn(-c3cccc(OC)c3)cn2)n1
3,106 to 107,CC(C)(C)N(O)CP(=O)(OCc1ccccc1)OCc1ccccc1
4,210,COc1ccc(N2CCN(c3ccc(-n4cnn(C(C)C)c4=O)cc3)CC2)cc1
5,259 to 260,O=C(Nc1nc(-c2ccco2)c(C(=O)c2cc[nH]c2)s1)c1ccncc1
6,108 to 112,OCCc1cccc2c(-c3ccccc3)c(Br)oc12
7,109 to 110,COc1cc(CC(=O)O)cc(OCCCc2cn(-c3ccc(C(F)(F)F)cn3)nc2C(C)C)c1
8,148 to 149,CCc1cnc(NC(=O)C(c2ccccc2)c2ccccc2)o1
9,205 to 208,CS(=O)(=O)c1ccc(Oc2ccc3[nH]c(C4=NCC(CC(=O)O)S4)cc3c2)cn1 (stereo unspecified)
10,206 to 208,COc1ccc(C(=O)Nc2ccccc2)cc1NS(=O)(=O)c1ccc(C#N)cc1
11,151 to 153,CCc1cnc2ccnn2c1NCc1ccc(-c2ccccc2C#N)cc1
12,99.5 to 102,COc1ccc(-c2nc3ccccc3o2)cc1
13,150 to 158,CC(C)(Cc1cc(F)cc(F)c1)NCC(O)c1cc(OCc2ccccc2)cc2c1OCC(=O)N2 (stereo unspecified)
14,169 to 171,COC1=C2C(=C(C(C)C)CC1(C)OC)C(=O)N(CSc1nnnn1-c1ccccc1)S2(=O)=O (stereo unspecified)
15,150,Cc1ccc(-c2cc3c4cc(C)ccc4n(C)c3n(C)c2=O)c(C)c1
16,75 to 76,CC(C)(C)c1ccc(C(=O)Cc2ccncc2)cc1
17,67 to 68,O=C(OCc1ccccc1)C(O)P(=O)(OCc1ccccc1)OCc1ccccc1 (stereo unspecified)
18,152 to 153,N#Cc1ccccc1-c1ccc(CO)cn1
19,89 to 90,COC(=O)c1ccc(Cn2ncc3ccccc32)cc1

row,melting point [°C],Structure (SMILES)
1,114 to 115,CC(C)c1cc(C(=O)C=CC(=O)N2CCN(C)CC2)ccc1OCC(=O)Nc1nc2ccccc2s1
2,177 to 179,O=c1[nH]c2ccccc2cc1CN1CC=C(CCc2ccccc2)CC1
3,147 to 155,Nc1nnc(-c2ccc(C(F)(F)F)cc2)n1-c1cc(Cl)ccc1O
4,124,COc1cc(-c2cccc(Cl)c2)c2cc(Br)ccc2n1
5,129 to 131,CC(C)c1nc2ccccc2c(-c2ccc(F)cc2)c1/C=C/I
6,220,COc1c(C)c(C(=O)c2ccc3[nH]c(=O)n(N)c(=O)c3c2)n2ccccc12
7,240 to 242,Cc1nc2cc3c(cc2o1)C1(CO3)C(=O)N(C(c2ccccc2)c2ccccc2)c2ccccc21 (stereo unspecified)
8,93 to 94,CNC(=O)C1Cc2c(nc(C)n2C)C2=C1C(=O)CC1(Cc3ccccc3C1)N2 (stereo unspecified)
9,110 to 111,O=C(Oc1ccccc1)Oc1ccccc1C(=O)NC(Oc1ccccc1)C(Cl)(Cl)Cl (stereo unspecified)
10,127 to 129,CNC(=O)CCN1CCC(C(O)(c2ccc(F)cc2)c2ccc(F)cc2)CC1
11,122 to 124,O=C(O)c1ccc(CCOc2c(F)ccc3nc(C(=O)NCc4cccc(OCCOc5nc[nH]n5)c4)[nH]c(=O)c23)cc1
12,242 to 243,CNC(=O)c1cc(C#N)cc(C)c1NC(=O)c1cc(Br)nn1-c1ccccc1Cl
13,137 to 138,CC(C)Cn1c(=O)n(C)c(=O)c2cc(Cc3cccc4ccccc34)sc21
14,> 90,Cc1cc(CN(Cc2ccc(F)cc2)c2cc(-c3ccc(C(F)(F)F)cc3)nn2C)cc(C)c1OC(C)(C)C(=O)O
15,206 to 207,CC(=O)c1ccc2c(c1)C(=O)c1ccccc1CN2
16,338 to 342,CC(C)n1c(=O)[nH]c2c(C(N)=O)nc(-c3cccc(O)c3)nc21
17,114 to 115,Cc1ccc(C)c(S(=O)(=O)N(C)CC(O)(CO)c2ccccc2)c1 (stereo unspecified)
18,143,COCC(=O)Nc1cccc(-n2nc(OC)c(=O)n(Cc3ccc(Cl)cc3)c2=O)c1
19,180 to 182,CCCOc1ccccc1-c1nc(O)cc(C(=O)O)n1

# The remaining lines, values behind:
row,Structure (SMILES),melting point [°C]
1,CCC(Oc1ccc(C(C)(C)CC)cc1C(C)(C)CC)C(=O)Nc1cc(Cl)c2[nH]c(=O)[nH]c2c1O (stereo unspecified),201 to 204
2,CC1(C)CC(=O)C(C(=O)Nc2ccc(Cl)c(Cl)c2)C(=O)C1,124 to 129
3,ONCc1cccc(I)c1,63 to 70
4,COc1cccc(C#N)c1C,47 to 48
5,CC(O)c1cc(I)cc(S(N)(=O)=O)c1 (stereo unspecified),184 to 187
6,O=C(CBr)Nc1ccc(Br)cc1C(=O)O,203 to 204
7,O=C(O)CCC/C=C\[C@@H]1C[C@@H](NS(=O)(=O)c2ccc(Cl)cc2)CN1S(=O)(=O)c1ccc(Cl)cc1,111 to 113
8,C=Cc1cccc(N)c1,80
9,CCCCOC(=O)NS(=O)(=O)CCc1c(C(F)(F)F)nn(C)c1-n1ccc2cc(Cl)cnc21,136 to 137
10,CS(=O)(=O)c1ccccc1C#N,105 to 106
11,Cn1cc(C(=O)NCc2ccc(Cl)cc2)c(=O)c2cc(CN3CCOCC3)cc(C#CCC(CO)CO)c21,190 to 193
12,c1csc(-c2n[nH]c3c2Cc2cc(CN4CCOCC4)ccc2-3)c1,178 to 179
13,CC(=O)N1CCC(CCC(=O)c2ccc3c(c2)CCN3C(C)=O)CC1,148 to 149
14,CCc1ccc2c(=O)c(CSC)cn(C)c2c1,104 to 106
15,CCOC(=O)C(Oc1cc(N)c(Cl)cc1C(=O)NCCN(CC)CC)c1ccccc1 (stereo unspecified),84 to 87
16,CCOC(=O)C(C)(C)Oc1cccc2c1C[C@@H](OC)[C@H](O)C2 (relative stereo),153 to 155
17,CN1CC(C(=O)CN2CCCCC2)CC2c3cccc4[nH]cc(c34)CC21 (stereo unspecified),168 to 170
18,Nc1cc(O)c2c(c1)C(=O)c1cccc(O)c1C2=O,250 to 252
19,O=C1NC(=O)C(=Cc2cc(O)c(O)c([N+](=O)[O-])c2)C(=O)N1,269 to 272
20,CCCc1c2c(c(C(C)(C)C)c(OC(C)=O)c1C(C)(C)C)CC(C)(C)O2,106
21,COC(=O)c1ccc2c(Br)n[nH]c2c1,186 to 189
22,NC(=O)c1cc([N+](=O)[O-])cnc1C(Cl)Cl,125 to 127

row,Structure (SMILES),melting point [°C]
1,O=c1[nH]c2cc(N3CCCC3)c(F)cc2c(=O)n1O,> 250
2,Cc1cc2n(n1)C(c1cccc([N+](=O)[O-])c1)N=N2 (stereo unspecified),269 to 275
3,CN1Sc2sccc2C=C1CN1CCOCC1,104 to 106
4,O=C(NCC1CC1)N1CC(Oc2ccc(C(F)(F)F)cc2)C1,132 to 133
5,CCOCC1OC(n2cnc3c(NC4CCCC4)ncnc32)C(O)C1O (stereo unspecified),134 to 136
6,CCN(C)C1=NS(=O)(=O)c2ccc(Cl)cc2N1,> 220
7,CC1OC(=O)c2c(S)cccc21 (stereo unspecified),40
8,CCNC(=NS(=O)(=O)c1cccc(Cl)c1)N1CC(C)(C)C=N1,62 to 67
9,COc1ccc2c(Cl)nc(Cl)nc2c1OC,153 to 155
10,CC(C)OC(=O)c1ncn2c1CN(C)C(=O)c1ccccc1-2,190 to 192
11,CCOC(=O)c1cnc([N+](=O)[O-])n1C,65 to 66
12,COc1cc(-c2nc(-n3c(C)ccc3C)sc2SCC2CCCCC2)c(OC)cc1C,117 to 118
13,O=C(Nc1nncs1)C(=O)c1cn(Cc2ccc(F)cc2)c2ccccc12,218 to 220
14,S=C1NCSc2ccsc21,136 to 138
15,COC(=O)c1cccc(OS(=O)(=O)C(F)(F)F)c1O,91.8 to 92.3
16,CCNC(=S)NC1CCC(=O)c2ccccc21 (stereo unspecified),134 to 138
17,CC(=O)Nc1cccc(-c2ccnc3c(C(=O)c4ccco4)cnn23)c1,195 to 196
18,CC(C)(C)OC(=O)C(CN(Cc1ccccc1)Cc1ccccc1)CC1(C(=O)NC(Cc2ccc(OC(C)(C)C)cc2)C(=O)OC(C)(C)C)CCCC1 (stereo unspecified),82 to 87
19,COC(=O)Nc1cc(F)c(C#N)cc1F,129
20,CN(C)C=Nn1cc(-c2ccc([N+](=O)[O-])o2)nn1,239 to 241
21,CC(C)(C)OC(=O)N(C(=N)N)C(=O)OC(C)(C)C,144 to 145
22,O=c1[nH]cnc2cc(Cl)sc12,238 to 239
